{
  "source": "patent US11076597B2",
  "about": "“High stress resistant plant growth regulator and preparation method and use thereof” (SHANGHAI INSTITUTES FOR BIOLOGICAL SCIENCES, CHINESE …, priority 2015, dated 2021)",
  "key": {"[1]": {"molecular_target": "T1, PYL2 receptor-HAB1 complex (Arabidopsis thaliana, UniProt O80992)", "T1 construct": "made in house; host or cells: E. coli BL21 (DE3)", "T1 sequence (O80992 14-188)": "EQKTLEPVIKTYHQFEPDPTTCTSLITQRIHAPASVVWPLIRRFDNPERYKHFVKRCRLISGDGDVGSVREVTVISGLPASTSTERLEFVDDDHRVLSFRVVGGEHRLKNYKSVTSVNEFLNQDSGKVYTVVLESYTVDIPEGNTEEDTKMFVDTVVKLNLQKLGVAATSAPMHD", "T1 sequence (Q9CAJ0 172-511 partner limits assumed)": "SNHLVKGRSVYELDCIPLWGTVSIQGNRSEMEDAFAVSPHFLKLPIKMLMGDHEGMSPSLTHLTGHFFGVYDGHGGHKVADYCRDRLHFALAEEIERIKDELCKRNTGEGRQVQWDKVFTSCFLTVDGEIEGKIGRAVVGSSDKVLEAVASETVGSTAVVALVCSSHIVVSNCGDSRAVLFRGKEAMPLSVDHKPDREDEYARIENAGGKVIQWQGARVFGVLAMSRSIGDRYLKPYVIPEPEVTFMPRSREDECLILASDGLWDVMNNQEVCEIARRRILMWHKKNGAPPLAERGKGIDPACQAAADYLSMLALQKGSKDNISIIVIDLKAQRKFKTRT", "test": "HAB1 phosphatase activity assay (SnRK2.6 phosphorylated polypeptide as substrate)", "format": "biochemical", "settings": "FIG. 1a-1g; 100 nM HAB1, 500 nM PYL2", "procedure": "50 mM imidazole, pH 7.2, 5 mM MgCl2, 0.1% β-mercaptoethanol, 0.5 μg·ml^−1 BSA, 100 nM HAB1 protein with a Biotin tag sequence, 500 nM PYL2 receptor protein with 6×His-SUMO dual tag sequence and the corresponding concentration of (+)-ABA/0224/0304/0706/0708/0713/0715/1028c/0428/1022B/NC0F4 were contained in the reaction system. The reaction system was incubated at room temperature for 30 minutes, followed by a further reaction for 30 minutes after adding an 11-amino acid phosphorylated polypeptide as a substrate. The phosphorylated polypeptide is amino acid 170-180 of SnRK2.6 protein kinase, wherein phosphorylated serine at position 175 (with a sequence of HSQPKpSTVGTP, purchased from Kingsley Company) was a known HAB1 dephosphorylation target site. After 30 minutes, chromogenic reagent (purchased from BioVision) was added and the absorbance at 650 nm was read on a microplate reader (Molecular Devices)."}, "[2]": {"molecular_target": "T2, PYL2 receptor-HAB1 protein phosphatase complex (Arabidopsis thaliana, UniProt O80992)", "T2 construct": "made in house; host or cells: E. coli BL21 (DE3)", "T2 sequence (O80992 14-188)": "T1 sequence (O80992 14-188)", "T2 sequence (Q9CAJ0 172-511 partner limits assumed)": "T1 sequence (Q9CAJ0 172-511 partner limits assumed)", "test": "AlphaScreen assay, PYL2 receptor binding to HAB1", "format": "biochemical", "settings": "fraction of the EC50 of ABA; FIG. 2c, 2e-2g", "procedure": "(§1) The AlphaScreen kit (available from Perkin Elmer) was used, and the method was as follows: a 10× buffer (50 mM MOPS, pH 7.4, 50 mM NaF, 50 mM CHAPS, 0.1 mg/ml bovine serum albumin) diluted at 1:10, each of 100 nM HAB1 with Biotin tag sequence and PYR1/PYL1/PYL2/PYL7/GmPYL6/OsPYL2 protein with dual tags of 6×His and SUMO sequences, corresponding concentrations of (+)-ABA/0224/0304/0706/0708/0713/0715/0428/NC0F4, and 5 μg/ml donor beads and acceptor beads (available from Perkin Elmer) were contained in 150 μl of experimental system. After incubating for 1.5 hours at room temperature in the dark, it was placed into an Envision Plate Reader (available from Perkin Elmer) under the programmed AlphaScreen procedure for readings.\n(§2) AlphaScreen technology was used to test the ability of the compounds of the present invention to promote PYL receptor binding to PP2C protein phosphatase (HAB1)."}, "[3]": {"molecular_target": "T2, PYL2 receptor-HAB1 protein phosphatase complex", "test": "AlphaScreen assay: promotion of PYL2 receptor binding to PP2C protein phosphatase HAB1", "settings": "6×His-SUMO-tagged PYL2 (aa 14-188), Biotin-tagged HAB1 (aa 172-511), 100 nM each, pH 7.4, 1.5 h room temperature, read-out: EC50", "source_text": "(§3) The construction method of recombinant plasmids for the Arabidopsis thaliana genes PYL1 (amino acid sequence 36-211), PYL2 (amino acid sequence 14-188) with dual tags of 6×His and SUMO sequence and the Arabidopsis thaliana gene HAB1 (amino acid sequence 172-511) with the Biotin tag sequence is described in detail in “A gate-latch-lock mechanism for hormone signaling by abscisic acid receptors” (Nature, Vol 462, 2009). The construction method of recombinant plasmids for PYR1 and PYL7 (whole gene coding sequence) and Soybean GmPYL6 and rice OsPYL2 with dual tags of 6×His and SUMO sequence is the same as that for Arabidopsis PYL2.\n(§4) The above recombinant plasmid is transformed into competent cell of E. coli BL21 (DE3) (purchased from NEB company), and inoculated into 200 ml of LB liquid medium containing Amp resistance (purchased from OXOID company) and cultured overnight at 37° C. at 200 rpm; and inoculated into 2 L of LB liquid medium containing Amp resistance at a ratio of 1:50-1:100 for an extended culture, and cultured at 37° C., 200 rpm for 3-4 hours, and at a low temperature of 16° C. until OD600 is about 0.8-1.0. Recombinant plasmids for PYR1/PYL1/PYL2/PYL7/GmPYL6/OsPYL2 with dual tags of 6×His and SUMO sequence were induced overnight with 100 μM of IPTG while HAB1 recombinant plasmid with the Biotin tag sequence was induced simultaneously with 100 μM of IPTG and 40 μM of biotin.\n(§5) After 16 hours of induction, the bacterial solution was centrifuged at 4000 rpm for 20 minutes at 4° C. in a low-speed high-capacity centrifuge, and the bacteria cells were collected. Bacteria cells were resuspended in 50 ml of extraction buffer (containing 20 mM Tris, pH 8.0, 200 mM NaCl and 10% (v/v) glycerol) for per 2 L of bacterial solution and then subjected to pressure-breaking at […] and 4° C. for 3-5 times. The broken cells were subjected to ultracentrifugation, centrifuged at 16000 rpm for 30 minutes, and this process was repeated twice. The supernatant was collected and subjected to an affinity chromatography column.\n(§6) For PYR/PYL proteins with dual tags of 6×His and SUMO sequences, 50 ml of affinity chromatography Ni column (50 ml Ni-NTA column, available from GE) was used. Firstly, the column was equilibrated with 600 ml of 10% buffer B (containing 20 mM Tris, PH 8.0, 200 mM NaCl, 500 mM imidazole and 10% glycerol), and then eluted with 200 ml of 50% buffer B and finally eluted with 100 ml of 100% buffer B. Proteins for crystal analysis were mixed with ulp1 enzyme at a molar ratio of 1000:1 for enzymatic dialysis overnight. The digested proteins were subjected to affinity chromatography on a Ni column once more. The collected solution was subjected to a HiLoad 26/60 Superdex200 gel filtration column (commercially available from GE) and eluted with an elution solution (containing 25 mM Tris, pH 8.0, 200 mM ammonium acetate, 1 mM dithiotreitol and 1 mM EDTA) to further separate and purify the protein.\nFor a HAB1 protein with a Biotin tag sequence, it was subjected to a 50 ml MBP affinity column (available from GE). The column was firstly equilibrated with 600 ml of 10% buffer C (containing 20 mM Tris, pH 8.0, 200 mM NaCl, 10 mM Maltose and 10% Glycerol), and eluted with 200 ml of 50% buffer C and finally eluted with 100 ml of 100% buffer C. The collection solution was subjected to a HiLoad 26/60 Superdex200 gel filtration column and eluted with an elution solution (containing 20 mM Tris, pH 8.0, 200 mM NaCl and 10% Glycerol) to further separate and purify the protein. […]"}, "[4]": {"test_system": "ABA-induced environmental stress-related gene (COR15a, COR47, RAB18 and RD29b)", "test": "Gene expression analysis (fluorescence quantitative PCR)", "format": "in vivo, Arabidopsis thaliana (Col-0)", "settings": "10 μM, 6 hours, 10-day-aged seedlings; FIG. 10", "procedure": "The whole plant or leaves were taken, and RNA extraction was carried out by using conventional methods. After reverse transcription, the fluorescence quantitative PCR was carried out. Three biological samples were taken for each treatment which was performed twice. The ACT7 gene was used as a reference gene."}, "[5]": {"molecular_target": "T3, PYR1 receptor-HAB1 protein phosphatase complex (Arabidopsis thaliana, UniProt O49686)", "T3 construct": "made in house; host or cells: E. coli BL21 (DE3)", "T3 sequence (O49686 1-191)": "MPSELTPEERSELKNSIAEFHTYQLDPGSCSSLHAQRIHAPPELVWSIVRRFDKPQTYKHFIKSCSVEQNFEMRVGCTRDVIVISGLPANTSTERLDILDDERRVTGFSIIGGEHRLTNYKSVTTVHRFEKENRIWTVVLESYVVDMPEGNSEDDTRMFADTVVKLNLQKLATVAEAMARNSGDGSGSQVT", "T3 sequence (Q9CAJ0 172-511 partner limits assumed)": "T1 sequence (Q9CAJ0 172-511 partner limits assumed)", "test": "AlphaScreen assay, PYR1 receptor binding to HAB1", "format": "biochemical", "settings": "fraction of the EC50 of ABA; FIG. 2a, 2h", "procedure": "as §1, §2"}, "[6]": {"molecular_target": "T3, PYR1 receptor-HAB1 protein phosphatase complex", "test": "AlphaScreen assay: promotion of PYR1 receptor binding to PP2C protein phosphatase HAB1", "settings": "FIG. 2h; 6×His-SUMO-tagged PYR1 (whole coding sequence), Biotin-tagged HAB1 (aa 172-511), 100 nM each; pH 7.4; 1.5 h room temperature; read-out: EC50", "source_text": "as §3, §4, §5, §6\nFor a HAB1 protein with a Biotin tag sequence, it was subjected to a 50 ml MBP affinity column (available from GE). The column was firstly equilibrated with 600 ml of 10% buffer C (containing 20 mM Tris, pH 8.0, 200 mM NaCl, 10 mM Maltose and 10% Glycerol), and eluted with 200 ml of 50% buffer C and finally eluted with 100 ml of 100% buffer C. […]"}},
  "note": "“Also recorded” adds a separate entry of the source. Like-named read-outs stand apart in the source and are kept apart here.",
  "data": [
    {"smiles": "Cc1c(F)c(F)c(CS(=O)(=O)Nc2ccc3c(c2)C(C)OC(=O)N3CC(C)C)c(F)c1F", "note": "(stereo not drawn) [Compound 0713]", "values": [
      {"measurement": "inhibition of HAB1 protein phosphatase activity by promoting binding between PYL2 receptor and HAB1", "setting": "[1]", "value": "inhibiting the activity of protein phosphatase HAB1; also recorded: inhibiting the dephosphorylation effect of HAB1 on SnRK2.6 phosphorylated polypeptide"},
      {"measurement": "EC50 value with PYL2 receptor-HAB1 complex as fraction of that of ABA", "setting": "[2]", "value": "⅕-⅛"},
      {"measurement": "EC50", "setting": "[3]; FIG. 2e", "value": 181, "unit": "nM"}
    ]},
    {"smiles": "Cc1c(F)c(F)c(CS(=O)(=O)Nc2ccc3c(c2)C(C)OC(=O)N3C(C)C)c(F)c1F", "note": "(stereo not drawn) [Compound 0708]", "values": [
      {"measurement": "inhibition of HAB1 protein phosphatase activity by promoting binding between PYL2 receptor and HAB1", "setting": "[1]", "value": "inhibiting the activity of protein phosphatase HAB1; also recorded: inhibiting the dephosphorylation effect of HAB1 on SnRK2.6 phosphorylated polypeptide"},
      {"measurement": "EC50 value with PYL2 receptor-HAB1 complex as fraction of that of ABA", "setting": "[2]", "value": "⅕-⅛"},
      {"measurement": "EC50", "setting": "[3]; FIG. 2e", "value": 136, "unit": "nM"}
    ]},
    {"smiles": "CCCN1C(=O)NC(C)c2cc(NS(=O)(=O)Cc3c(F)c(F)c(C)c(F)c3F)ccc21", "note": "(stereo not drawn) [Compound 1028c]", "values": [
      {"measurement": "inhibition of HAB1 protein phosphatase activity by promoting binding between PYL2 receptor and HAB1", "setting": "[1]", "value": "inhibiting the activity of protein phosphatase HAB1; also recorded: inhibiting the dephosphorylation effect of HAB1 on SnRK2.6 phosphorylated polypeptide"}
    ]},
    {"smiles": "CCCn1c(=O)ccc2cc(NS(=O)(=O)Cc3ccc(C)cc3)ccc21", "note": "[Compound 1022B]", "values": [
      {"measurement": "inhibition of HAB1 protein phosphatase activity by promoting binding between PYL2 receptor and HAB1", "setting": "[1]", "value": "inhibiting the activity of protein phosphatase HAB1; also recorded: inhibiting the dephosphorylation effect of HAB1 on SnRK2.6 phosphorylated polypeptide"},
      {"measurement": "EC50 value with PYL2 receptor-HAB1 complex as fraction of that of ABA", "setting": "[2]", "value": "one order of magnitude lower than that of ABA"},
      {"measurement": "EC50", "setting": "[3]; FIG. 2g", "value": 180, "unit": "nM"},
      {"measurement": "expression level of COR15a, COR47, RAB18 and RD29b", "setting": "[4]", "value": "all higher than those of ABA; also recorded: significantly increased"}
    ]},
    {"smiles": "CCCN1C(=O)NCc2cc(NS(=O)(=O)Cc3c(F)c(F)c(C)c(F)c3F)ccc21", "note": "[Compound NC0F4]", "values": [
      {"measurement": "inhibition of HAB1 protein phosphatase activity by promoting binding between PYL2 receptor and HAB1", "setting": "[1]", "value": "inhibiting the activity of protein phosphatase HAB1; also recorded: inhibiting the dephosphorylation effect of HAB1 on SnRK2.6 phosphorylated polypeptide"},
      {"measurement": "EC50 value with PYR1 receptor-HAB1 complex as fraction of that of ABA", "setting": "[5]", "value": "about 1/11"},
      {"measurement": "EC50 value with PYL2 receptor-HAB1 complex as fraction of that of ABA", "setting": "[2]", "value": "better PYL2 receptor affinity over ABA"},
      {"measurement": "EC50", "setting": "[6]", "value": 373, "unit": "nM"}
    ]}
  ]
}
